According to patent publication US20210030870A1, “MODULATION OF P62 AND STING ACTIVITY” (priority 2018, published 2021):
“Also recorded” adds a separate entry of the source.

Columns and labels:
STING-pathway [1] = assay: Functional type I IFN assay (HEK-Blue IFN-α/β reporter) on supernatants of peptide-pretreated PBMCs; type: cell-based, human; conditions: for type I IFN: PBMCs, peptide pre-activation (25 μg/ml), co-stimulation with HT-DNA
STING-pathway [2] = assay: Functional type I IFN assay on supernatants of peptide-pretreated THP1 cells; type: cell-based, human; conditions: peptide pre-activation (10 μg/ml), co-stimulation with HT-DNA
DNA-cGAS STING pathway [3] = assay: CXCL10 ELISA, THP1 cells with PEP302; type: cell-based, human; conditions: DNA stimulation
Method: Protein levels of the cytokines CXCL10 and TNF-α in supernatants, were measured using ELISA kits from R and D Systems (CXCL10; DY266) and (TNF-α; DY210) following the manufacturer's instructions.

STING = assay: Western blotting of THP1 cells treated with PEP302; type: cell-based, human
Method: Whole-cell extracts or immunoprecipitation samples were analyzed by immunoblotting. Samples were diluted in XT sample buffer and XT reducing agent and ran on a SDS—PAGE (Criterion™ TGX™). Trans-Blot Turbo™ Transfer System was used for the transfer of proteins to PVDF membranes (all reagents Bio-Rad). The membrane was blocked in 5% Difco™ skim milk (BD) or 5% bovine serum albumin (BSA) (Sigma). For detection of STING dimerization, samples were prepared for electrophoresis using non-reducing RIPA lysis buffer with 0.2% SDS and complete mini inhibitor (Sigma). The antibodies used for immunoblotting were as follows: rabbit anti-pSTING (S366) (Cell Signaling Technology, #85735), rabbit anti-pTBK1 (Ser172) (Cell Signaling, D52C2/#5483), rabbit anti-phospho p62 (Cell Signalling), Guinea pig anti-p62 (Progen), rabbit anti-STING (Cell Signalling) and mouse anti-b-actin (Abcam, AC-15/ab49900).

DNA-cGAS STING pathway [4] = assay: Type I IFN bioassay, THP1 cells stimulated with DNA or polyIC with/without PEP302; type: cell-based, human
Method: Bioactive human type I IFN was measured on cell supernatants by use of HEK-Blue™ IFN-a/b cells as reporter cells according to the manufacturer instructions (InvivoGen).

STING-pathway [5] = assay: TNF-α ELISA on supernatants of peptide-pretreated PBMCs stimulated with STING agonists; type: cell-based; conditions: human primary PBMCs, peptide pre-activation (25 μg/ml, 1 hour), co-stimulation with cGAMP or HT-DNA, supernatants after 20 hours
STING-pathway [6] = assay: CXCL10 ELISA on supernatants of peptide-pretreated PMA-differentiated THP1 cells; type: cell-based; conditions: human PMA-differentiated THP1 cells, peptide 10 μg/ml, HT-DNA treatment; listed as SEQ ID NO: 9
[7] = THP1 cells treated with peptide
[8] = THP1 cells, after DNA and cGAMP stimulation, Western blotting

How did the “type I IFN” value (STING-pathway [1]) turn out when “SLTVKAYLLGKEDAAREIRRGRKKRRQRRRPQ (listed as Homo sapiens) [PEP300, N-terminal fragment peptide of human P62 C-terminally conjugated to TAT]” was run?
The value was “significant suppression”.

And the “type I IFN” value (STING-pathway [1]; listed as SEQ ID NO: 8)?
Its value is “capable of reducing”.

What about the “type I IFN” value (STING-pathway [2]) of the same sequence?
The value was “significant suppression”.

What about the “type I IFN” value (STING-pathway [2]; listed as SEQ ID NO: 8) of the same sequence?
Its value is “capable of reducing”.

Which “type I IFN” value (STING-pathway [1]) does the source give for “DLCSVCEGKGLHRGHTKLAFGRKKRRQRRRPQ (listed as Homo sapiens) [PEP307, ZZ domain fragment peptide of human P62 C-terminally conjugated to TAT]” here?
The value was “significant suppression”.

What about the “type I IFN” value (STING-pathway [1]; listed as SEQ ID NO: 10) of the same sequence?
The value was “capable of reducing”.

And the “type I IFN” value (STING-pathway [2])?
The value was “significant suppression”.

And the “type I IFN” value (STING-pathway [2]; listed as SEQ ID NO: 10)?
The value was “capable of reducing”.

Which results are given for “PGPCERLLSRVAALFPALRP GRKKRRQRRRPQ (PGPCERLLSRVAALFPALRPGRKKRRQRRRPQ; listed as Homo sapiens) [PEP302, PB1 domain fragment peptide of human P62]”?
DNA-STING-induced CXCL10 production (DNA-cGAS STING pathway [3]): reduces; also recorded: can inhibit; STING dimerization (STING; [7]): may induce; autophagy (LC3 turnover) (STING; [7]): may induce; also recorded: seems to constitutively induce; p62 dimerization (STING; [7]): may induce; also recorded: induce p62 dimerization; ubiquitination of STING (STING; THP1 cells treated with peptide alone): may also induce; also recorded: potentially ubiquitination of STING; phosphorylation of TBK1 (STING; [8]): significantly reduced; also recorded: inhibit/reduce; phosphorylation of p62 (STING; [8]): significantly reduced; also recorded: inhibit/reduce; phosphorylation of STING (STING; THP1 cells, after DNA stimulation, Western blotting): can inhibit; also recorded: may inhibit; phosphorylation of STING (phospho-STING) (STING; THP1 cells, after cGAMP stimulation, Western blotting): significantly reduce; also recorded: may inhibit; pathway specificity of type I IFN inhibition (DNA versus polyIC stimulation) (DNA-cGAS STING pathway [4]; THP1 cells stimulated with DNA or polyIC with/without peptide): may specifically target the DNA-cGAS STING pathway and not the polylC pathway; DNA-activated IFN (type I IFN bioassay) (DNA-cGAS STING pathway [4]; THP1 cells, DNA stimulation): reduces

“EELTMAMSYVKDDIFRIYIKGRKKRRQRRRPQ (listed as Homo sapiens) [PEP305, PB1 domain fragment peptide of human P62 C-terminally conjugated to TAT]” was tested. Which “cytokine response of TNF-alpha” value (STING-pathway [5]) did it give?
The value was “enhance”.

What about the “cytokine response of TNF-alpha” value (STING-pathway [5]; listed as SEQ ID NO: 9) of the same sequence?
Its value is “very efficient in increasing”.

And the CXCL10 expression (STING-pathway [6])?
The CXCL10 expression was “very efficient in increasing; also recorded: increase”.

What about the “type I Interferon” value (STING-pathway [1]; human primary PBMCs, peptide pre-activation (25 μg/ml, 1 hour), co-stimulation with cGAMP or HT-DNA) of the same sequence?
The value was “suppress”.
